Test results from patent US6951868B2, “Azabicyclic-phenyl-fused-heterocyclic compounds for treatment of disease” (Pfizer Inc., priority 2001, dated 2005).

Molecular target: T1, chimeric α7-5HT3 ion channel (UniProt P23979+P36544, M226I/T225I)
T1 construct: pore forming region of the mouse 5HT3 receptor (fusion partner, same polypeptide); expressed in transfected cells
Experiment: Cell-based FLIPR assay measuring the EC50 of α7 nAChR agonists on the chimeric α7-5HT3 receptor
Set-up: species or system human/mouse
Details: SH-EP1 cells expressing chimeric α7-5HT3 ion channel; increase in intracellular calcium (Calcium Green fluorescence, FLIPR)
Excerpt: Cell-based Assay for Measuring the EC50 of α7 nAChR Agonists
Construction and Expression of the α7-5HT3 Receptor:
The cDNA encoding the N-terminal 201 amino acids from the human α7 nAChR that contain the ligand binding domain of the ion channel was fused to the cDNA encoding the pore forming region of the mouse 5HT3 receptor as described by Eisele J L, et al., Chimaeric nicotinic-serotonergic receptor combines distinct ligand binding and channel specificities, Nature (1993), December 2;366(6454):479-83, and modified by Groppi, et al., WO 00/73431. The chimeric α7-5HT3 ion channel was inserted into pGS175 and pGS179 which contain the resistance genes for G-418 and hygromycin B, respectively. […]
To assay the activity of the α7-5HT3 ion channel, cells expressing the channel were plated into each well of either a 96 or 384 well dish (Corning #3614) and grown to confluence prior to assay. […] The activity of compounds on the chimeric α7-5HT3 ion channel was analyzed on FLIPR. […] Fluorescent emission was measured above 525 nanometers with an appropriate F-stop to maintain a maximal signal to noise ratio. Agonist activity of each compound was measured by directly adding the compound to cells expressing the chimeric α7-5HT3 ion channel and measuring the resulting increase in intracellular calcium that is caused by the agonist-induced activation of the chimeric ion channel. […]

T1 sequence (P36544+P23979 fused P36544:T225I/P36544:M226I): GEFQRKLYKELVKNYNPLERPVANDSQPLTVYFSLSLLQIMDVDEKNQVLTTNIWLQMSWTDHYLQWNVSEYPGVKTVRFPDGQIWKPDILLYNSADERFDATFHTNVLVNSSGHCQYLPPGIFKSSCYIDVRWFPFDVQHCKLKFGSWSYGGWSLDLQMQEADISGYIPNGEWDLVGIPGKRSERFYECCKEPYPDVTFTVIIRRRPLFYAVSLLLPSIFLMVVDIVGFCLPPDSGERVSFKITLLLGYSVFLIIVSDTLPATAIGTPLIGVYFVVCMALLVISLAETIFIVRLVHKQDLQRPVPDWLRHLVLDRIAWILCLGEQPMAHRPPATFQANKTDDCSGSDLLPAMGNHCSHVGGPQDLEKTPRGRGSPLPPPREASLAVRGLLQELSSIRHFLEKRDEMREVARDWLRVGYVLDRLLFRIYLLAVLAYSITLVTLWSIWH

Structure (SMILES) | Agonist activity (result in words)
Cl.O=C(N[C@H]1CN2CCC1CC2)c1ccc2c(c1)O[C@H](COc1ccccc1)CO2 [Example 12, (3R)-N-[(3R)-1-Azabicyclo[2.2.2]oct-3-yl]-3-(phenoxymethyl)-2,3-dihydro-1,4-benzodioxine-6-carboxamide Hydrochloride] | inactive
O=C(N[C@H]1CN2CCC1CC2)c1ccc2c(c1)OCC(COCc1ccccc1)O2.O=C(O)/C=C/C(=O)O (single isomer, unassigned) [Example 6(b)] | inactive
